Assay results published in patent US10201564B2, “Methods of using inhaled nitric oxide gas for treatment of acute respiratory distress syndrome in children” (Mallinckrodt Hospital Products IP Limited, priority 2014, dated 2019).

System: pediatric subjects with acute hypoxemic respiratory failure (AHRF)
Experiment: Pediatric AHRF study: adverse events, serious adverse events, deaths, discontinuations
Format: in vivo, human
Conditions: 5 ppm
Description: This was a prospective, multicenter, randomized, double-blind, placebo-controlled, parallel-group study of the safety and efficacy of inhaled nitric oxide in pediatric subjects with acute hypoxemic respiratory failure (AHRF). The subjects were randomized to receive either 5 ppm inhaled nitric oxide or placebo.
Nitric Oxide for inhalation at 5 ppm was administered continuously into the inspiratory limb of the ventilator circuit in mechanically ventilated subjects using a blinded version of the INOvent® delivery system.
Subjects received 100% treatment gas (nitric oxide 5 ppm or placebo [nitrogen gas]) until Day 28 or extubation, whichever occurred first.
This was a prospective, multicenter, randomized, double-blind, placebo-controlled, Phase III study to assess the effects of nitric oxide for inhalation in the treatment of acute hypoxic respiratory failure (AHRF) in pediatric subjects. The study population consisted of male and female pediatric subjects, aged 44 weeks postconceptional age to 16 years age, who were admitted to the pediatric intensive care unit (PICU) and who required intubation because of AHRF. The inclusion/exclusion criteria are described in the Patients section below.
Standardized ventilatory management and weaning procedures were used. Ventilatory management was used based on an “open lung approach” using positive end-expiratory pressure (PEEP) to increase lung volume and limiting tidal volumes to reduce plateau pressures. Subjects received nitric oxide for inhalation at 5 ppm or placebo (100% Grade 5 nitrogen gas) into the inspiratory limb of the ventilator circuit using a blinded version of the INOvent® delivery system. The subjects were treated until Day 28 or extubation, whichever occurred first. Subjects were assessed daily using a spontaneous breathing trial, according to the institution's standard of care. Arterial blood gases (ABG), ventilator settings, methemoglobin, oxygenation index, systolic blood pressure, diastolic blood pressure, Pediatric Risk of Mortality (PRISM) III score, and subject positioning (prone or supine) were performed/recorded at specified times during the study. Selected centers also performed plasma cytokine assays, bronchoalveolar lavage fluid (BALF) assays, and a 6-month follow-up assessment.

[1] = AE in which death was the outcome
[2] = AE not suspected related to study treatment
[3] = AE suspected related to study treatment
[4] = AE with death as outcome, not suspected related to treatment

Structure (SMILES): [N]=O [Nitric Oxide, nitric oxide]
- most frequently reported AEs: bradycardia and hypotension
- subjects who died during the follow-up period after treatment: 1
- subjects who died during treatment: 2
- frequency of treatment discontinuation due to AEs (1 of 26 subjects, placebo 6.9%): 3.9%
- subjects with serious AEs (SAEs) (1 of 26 subjects, placebo 27.6%): 3.9%
- subjects with severe AEs (2 subjects, placebo 34.5%): 7.7%
- subjects reporting AEs (16 of 26 subjects, placebo 72.4%): 61.5%
- Bradycardia [1]: 1 (3.8%) n (%)
- Brain edema [1]: 0 (0.0) n (%)
- Cardiac arrest [1]: 0 (0.0) n (%)
- Diabetic ketoacidosis [1]: 0 (0.0) n (%)
- Hemolytic anemia [1]: 0 (0.0) n (%)
- Hepatic failure [1]: 0 (0.0) n (%)
- Hypotension [1]: 1 (3.8%) n (%)
- Intracranial pressure increased [1]: 0 (0.0) n (%)
- Multi-organ failure [1]: 0 (0.0) n (%)
- Pancreatitis [1]: 0 (0.0) n (%)
- Pneumonia, aspergillus [1]: 0 (0.0) n (%)
- Pulmonary hemorrhage [1]: 0 (0.0) n (%)
- Renal failure [1]: 0 (0.0) n (%)
- Renal impairment [1]: 0 (0.0) n (%)
- Sepsis [1]: 0 (0.0) n (%)
- Abdominal distension [2]: 0 (0.0) n (%)
- Acidosis [2]: 1 (3.8%) n (%)
- Agitation [2]: 2 (7.7%) n (%)
- Anemia [2]: 1 (3.8%) n (%)
- Apnea [2]: 1 (3.8%) n (%)
- Arrhythmia [2]: 1 (3.8%) n (%)
- Ascites [2]: 1 (3.8%) n (%)
- Bacteremia [2]: 2 (7.7%) n (%)
- Bacteria, blood [2]: 1 (3.8%) n (%)
- Bacteria, sputum [2]: 0 (0.0) n (%)
- Bladder distension [2]: 0 (0.0) n (%)
- Bradycardia [2]: 3 (11.5%) n (%)
- Brain edema [2]: 0 (0.0) n (%)
- Bronchoalveolar lavage [2]: 1 (3.8%) n (%)
- C-reactive protein increased [2]: 0 (0.0) n (%)
- Cardiac arrest [2]: 0 (0.0) n (%)
- Cerebral artery occlusion [2]: 0 (0.0) n (%)
- Chest tube insertion [2]: 1 (3.8%) n (%)
- Deep vein thrombosis [2]: 2 (7.7%) n (%)
- Device failure [2]: 0 (0.0) n (%)
- Diabetic ketoacidosis [2]: 0 (0.0) n (%)
- Diarrhea [2]: 0 (0.0) n (%)
- Disseminated intravascular coagulation [2]: 0 (0.0) n (%)
- Empyema [2]: 0 (0.0) n (%)
- Feeding disorder [2]: 0 (0.0) n (%)
- Fungemia [2]: 1 (3.8%) n (%)
- Fungus culture positive [2]: 0 (0.0) n (%)
- Fungus urine test positive [2]: 0 (0.0) n (%)
- Gastrointestinal hemorrhage [2]: 0 (0.0) n (%)
- Generalized edema [2]: 0 (0.0) n (%)
- Grangrene [2]: 1 (3.8%) n (%)
- Hematuria [2]: 0 (0.0) n (%)
- Hemoglobinemia [2]: 1 (3.8%) n (%)
- Hemolytic anemia [2]: 0 (0.0) n (%)
- Hemopneumothorax [2]: 0 (0.0) n (%)
- Hemorrhage [2]: 0 (0.0) n (%)
- Hemothorax [2]: 0 (0.0) n (%)
- Hepatic failure [2]: 0 (0.0) n (%)
- Hepatosplenomegaly [2]: 1 (3.8%) n (%)
- Hyperammonemia [2]: 0 (0.0) n (%)
- Hypercalcemia [2]: 1 (3.8%) n (%)
- Hypercapnia [2]: 0 (0.0) n (%)
- Hyperchloremia [2]: 1 (3.8%) n (%)
- Hyperglycemia [2]: 1 (3.8%) n (%)
- Hyperkalemia [2]: 1 (3.8%) n (%)
- Hyperlipidemia [2]: 0 (0.0) n (%)
- Hypernatremia [2]: 2 (7.7%) n (%)
- Hypertension [2]: 0 (0.0) n (%)
- Hypocalcemia [2]: 1 (3.8%) n (%)
- Hypochloremia [2]: 0 (0.0) n (%)
- Hypokalemia [2]: 2 (7.7%) n (%)
- Hypotension [2]: 3 (11.5%) n (%)
- Hypothermia [2]: 0 (0.0) n (%)
- Hypoxia [2]: 0 (0.0) n (%)
- Intracranial pressure increased [2]: 0 (0.0) n (%)
- Labile blood pressure [2]: 0 (0.0) n (%)
- Leukocytosis [2]: 1 (3.8%) n (%)
- Lung infection, pseudomonal [2]: 0 (0.0) n (%)
- Medical device removal [2]: 0 (0.0) n (%)
- Metabolic acidosis [2]: 0 (0.0) n (%)
- Metabolic alkalosis [2]: 1 (3.8%) n (%)
- Multi-organ failure [2]: 0 (0.0) n (%)
- Ocular icterus [2]: 0 (0.0) n (%)
- Oliguria [2]: 0 (0.0) n (%)
- Oxygen saturation decreased [2]: 2 (7.7%) n (%)
- Pancreatitis [2]: 0 (0.0) n (%)
- Pleural effusion [2]: 0 (0.0) n (%)
- Pneumomediastinum [2]: 0 (0.0) n (%)
- Pneumonia [2]: 1 (3.8%) n (%)
- Pneumonia, aspergillus [2]: 0 (0.0) n (%)
- Pneumonia, staphylococcal [2]: 1 (3.8%) n (%)
- Pneumothorax [2]: 2 (7.7%) n (%)
- Pruritus [2]: 0 (0.0) n (%)
- Pseudomonal sepsis [2]: 1 (3.8%) n (%)
- Pulmonary hemorrhage [2]: 0 (0.0) n (%)
- Pulmonary hypertension [2]: 0 (0.0) n (%)
- Pyrexia [2]: 0 (0.0) n (%)
- Renal failure [2]: 1 (3.8%) n (%)
- Renal failure, acute [2]: 0 (0.0) n (%)
- Renal impairment [2]: 0 (0.0) n (%)
- Respiratory acidosis [2]: 0 (0.0) n (%)
- Respiratory failure [2]: 1 (3.8%) n (%)
- Sepsis [2]: 0 (0.0) n (%)
- Skin injury [2]: 0 (0.0) n (%)
- Subdural hematoma [2]: 0 (0.0) n (%)
- Thrombocythemia [2]: 1 (3.8%) n (%)
- Thrombocytopenia [2]: 0 (0.0) n (%)
- Tracheitis [2]: 2 (7.7%) n (%)
- Unevaluable event [2]: 2 (7.7%) n (%)
- Urinary tract infection [2]: 1 (3.8%) n (%)
- Urinary tract infection, fungal [2]: 1 (3.8%) n (%)
- Urine output decreased [2]: 1 (3.8%) n (%)
- White blood cell count increased [2]: 0 (0.0) n (%)
- Abdominal distension [3]: 0 (0.0) n (%)
- Acidosis [3]: 0 (0.0) n (%)
- Agitation [3]: 0 (0.0) n (%)
- Anemia [3]: 0 (0.0) n (%)
- Apnea [3]: 0 (0.0) n (%)
- Arrhythmia [3]: 0 (0.0) n (%)
- Ascites [3]: 0 (0.0) n (%)
- Bacteremia [3]: 0 (0.0) n (%)
- Bacteria, blood [3]: 0 (0.0) n (%)
- Bacteria, sputum [3]: 0 (0.0) n (%)
- Bladder distension [3]: 0 (0.0) n (%)
- Bradycardia [3]: 0 (0.0) n (%)
- Brain edema [3]: 0 (0.0) n (%)
- Bronchoalveolar lavage [3]: 0 (0.0) n (%)
- C-reactive protein increased [3]: 0 (0.0) n (%)
- Cardiac arrest [3]: 0 (0.0) n (%)
- Cerebral artery occlusion [3]: 0 (0.0) n (%)
- Chest tube insertion [3]: 0 (0.0) n (%)
- Deep vein thrombosis [3]: 0 (0.0) n (%)
- Device failure [3]: 0 (0.0) n (%)
- Diabetic ketoacidosis [3]: 0 (0.0) n (%)
- Diarrhea [3]: 0 (0.0) n (%)
- Disseminated intravascular coagulation [3]: 0 (0.0) n (%)
- Empyema [3]: 0 (0.0) n (%)
- Feeding disorder [3]: 0 (0.0) n (%)
- Fungemia [3]: 0 (0.0) n (%)
- Fungus culture positive [3]: 0 (0.0) n (%)
- Fungus urine test positive [3]: 0 (0.0) n (%)
- Gastrointestinal hemorrhage [3]: 0 (0.0) n (%)
- Generalized edema [3]: 0 (0.0) n (%)
- Grangrene [3]: 0 (0.0) n (%)
- Hematuria [3]: 0 (0.0) n (%)
- Hemoglobinemia [3]: 0 (0.0) n (%)
- Hemolytic anemia [3]: 0 (0.0) n (%)
- Hemopneumothorax [3]: 0 (0.0) n (%)
- Hemorrhage [3]: 0 (0.0) n (%)
- Hemothorax [3]: 0 (0.0) n (%)
- Hepatic failure [3]: 0 (0.0) n (%)
- Hepatosplenomegaly [3]: 0 (0.0) n (%)
- Hyperammonemia [3]: 0 (0.0) n (%)
- Hypercalcemia [3]: 0 (0.0) n (%)
- Hypercapnia [3]: 0 (0.0) n (%)
- Hyperchloremia [3]: 0 (0.0) n (%)
- Hyperglycemia [3]: 0 (0.0) n (%)
- Hyperkalemia [3]: 0 (0.0) n (%)
- Hyperlipidemia [3]: 0 (0.0) n (%)
- Hypernatremia [3]: 0 (0.0) n (%)
- Hypertension [3]: 0 (0.0) n (%)
- Hypocalcemia [3]: 0 (0.0) n (%)
- Hypochloremia [3]: 0 (0.0) n (%)
- Hypokalemia [3]: 0 (0.0) n (%)
- Hypotension [3]: 0 (0.0) n (%)
- Hypothermia [3]: 0 (0.0) n (%)
- Hypoxia [3]: 0 (0.0) n (%)
- Intracranial pressure increased [3]: 0 (0.0) n (%)
- Labile blood pressure [3]: 0 (0.0) n (%)
- Leukocytosis [3]: 0 (0.0) n (%)
- Lung infection, pseudomonal [3]: 0 (0.0) n (%)
- Medical device removal [3]: 0 (0.0) n (%)
- Metabolic acidosis [3]: 0 (0.0) n (%)
- Metabolic alkalosis [3]: 0 (0.0) n (%)
- Multi-organ failure [3]: 0 (0.0) n (%)
- Ocular icterus [3]: 0 (0.0) n (%)
- Oliguria [3]: 0 (0.0) n (%)
- Oxygen saturation decreased [3]: 0 (0.0) n (%)
- Pancreatitis [3]: 0 (0.0) n (%)
- Pleural effusion [3]: 0 (0.0) n (%)
- Pneumomediastinum [3]: 0 (0.0) n (%)
- Pneumonia [3]: 0 (0.0) n (%)
- Pneumonia, aspergillus [3]: 0 (0.0) n (%)
- Pneumonia, staphylococcal [3]: 0 (0.0) n (%)
- Pneumothorax [3]: 0 (0.0) n (%)
- Pruritus [3]: 0 (0.0) n (%)
- Pseudomonal sepsis [3]: 0 (0.0) n (%)
- Pulmonary hemorrhage [3]: 0 (0.0) n (%)
- Pulmonary hypertension [3]: 0 (0.0) n (%)
- Pyrexia [3]: 0 (0.0) n (%)
- Renal failure [3]: 0 (0.0) n (%)
- Renal failure, acute [3]: 0 (0.0) n (%)
- Renal impairment [3]: 0 (0.0) n (%)
- Respiratory acidosis [3]: 0 (0.0) n (%)
- Respiratory failure [3]: 0 (0.0) n (%)
- Sepsis [3]: 0 (0.0) n (%)
- Skin injury [3]: 0 (0.0) n (%)
- Subdural hematoma [3]: 0 (0.0) n (%)
- Thrombocythemia [3]: 0 (0.0) n (%)
- Thrombocytopenia [3]: 0 (0.0) n (%)
- Tracheitis [3]: 0 (0.0) n (%)
- Unevaluable event [3]: 0 (0.0) n (%)
- Urinary tract infection [3]: 0 (0.0) n (%)
- Urinary tract infection, fungal [3]: 0 (0.0) n (%)
- Urine output decreased [3]: 0 (0.0) n (%)
- White blood cell count increased [3]: 0 (0.0) n (%)
- Bradycardia [4]: 1 (3.8%) n (%)
- Brain edema [4]: 0 (0.0) n (%)
- Cardiac arrest [4]: 0 (0.0) n (%)
- Diabetic ketoacidosis [4]: 0 (0.0) n (%)
- Hemolytic anemia [4]: 0 (0.0) n (%)
